Experiments:
Test in all cases: relative viability (nuclei count vs DMSO), 5 days (fraction); higher = more cells survive
NCI-H727 = tested on: NCI-H727
Outline: (§1)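 Nuclei were stained with Hoechst during a one-step fixation (final 0.05% Triton X-100, 1% formaldehyde, 1 ug/ml Hoechst) carried out 5 days after dosing, then counted on 4× images. The cells, lung cancer lines in 1536-well plates, had been dosed by pin tool the day after seeding with one drug alone or a fixed anchor-drug dose plus five library-drug doses (not always all listed) in √10 steps. Relative viability is the nuclei count in treated wells divided by that in vehicle wells, and each value is the median of duplicate plates.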

NCI-H522 = tested on: NCI-H522
Outline: as §1

NCI-H647 = tested on: NCI-H647
Outline: as §1

EPLC-272H = tested on: EPLC-272H
Outline: as §1

NCI-H838 = tested on: NCI-H838
Outline: as §1

COR-L23 = tested on: COR-L23
Outline: as §1

NCI-H1792 = tested on: NCI-H1792
Outline: as §1

EKVX = tested on: EKVX
Outline: as §1

NCI-H661 = tested on: NCI-H661
Outline: as §1

NCI-H1651 = tested on: NCI-H1651
Outline: as §1

NCI-H2087 = tested on: NCI-H2087
Outline: as §1

NCI-H1437 = tested on: NCI-H1437
Outline: as §1

NCI-H1650 = tested on: NCI-H1650
Outline: as §1

ABC-1 = tested on: ABC-1
Outline: as §1

UMC-11 = tested on: UMC-11
Outline: as §1

LCLC-103H = tested on: LCLC-103H
Outline: as §1

HCC-44 = tested on: HCC-44
Outline: as §1

NCI-H520 = tested on: NCI-H520
Outline: as §1

H3255 = tested on: H3255
Outline: as §1

201T = tested on: 201T
Outline: as §1

NCI-H358 = tested on: NCI-H358
Outline: as §1

HCC-15 = tested on: HCC-15
Outline: as §1

NCI-H1975 = tested on: NCI-H1975
Outline: as §1

COR-L 105 = tested on: COR-L 105
Outline: as §1

HCC-827 = tested on: HCC-827
Outline: as §1

CCCCCCCCCCCC1=C(O)C(=O)C=C(O)C1=O [Embelin] + COc1cccc2cc(-c3nc([C@H]4CC[C@H](C(=O)O)CC4)n4ncnc(N)c34)[nH]c12 [OSI-027] (partner 0.5 µM)
relative viability (NCI-H727; first compound 0.08 µM): 0.659
relative viability (NCI-H727; first compound 0.8 µM): 0.79
relative viability (NCI-H727; first compound 2.53 µM): 0.494
relative viability (NCI-H727; first compound 8 µM): 0.709
relative viability (NCI-H522; first compound 0.08 µM): 0.677
relative viability (NCI-H522; first compound 0.8 µM): 0.714
relative viability (NCI-H522; first compound 2.53 µM): 0.752
relative viability (NCI-H522; first compound 8 µM): 0.641
relative viability (NCI-H647; first compound 0.08 µM): 0.684
relative viability (NCI-H647; first compound 0.8 µM): 0.72
relative viability (NCI-H647; first compound 2.53 µM): 0.963
relative viability (NCI-H647; first compound 8 µM): 0.649
relative viability (EPLC-272H; first compound 0.08 µM): 0.256
relative viability (EPLC-272H; first compound 0.8 µM): 0.319
relative viability (EPLC-272H; first compound 2.53 µM): 0.309
relative viability (EPLC-272H; first compound 8 µM): 0.255
relative viability (NCI-H838; first compound 0.08 µM): 0.403
relative viability (NCI-H838; first compound 0.8 µM): 0.463
relative viability (NCI-H838; first compound 2.53 µM): 0.38
relative viability (NCI-H838; first compound 8 µM): 0.436
relative viability (COR-L23; first compound 0.08 µM): 0.756
relative viability (COR-L23; first compound 0.8 µM): 0.92
relative viability (COR-L23; first compound 2.53 µM): 0.923
relative viability (COR-L23; first compound 8 µM): 0.921
relative viability (NCI-H1792; first compound 0.08 µM): 0.746
relative viability (NCI-H1792; first compound 0.8 µM): 0.884
relative viability (NCI-H1792; first compound 2.53 µM): 0.711
relative viability (NCI-H1792; first compound 8 µM): 0.838
relative viability (EKVX; first compound 0.08 µM): 0.715
relative viability (EKVX; first compound 0.8 µM): 0.677
relative viability (EKVX; first compound 2.53 µM): 0.789
relative viability (EKVX; first compound 8 µM): 0.743
relative viability (NCI-H661; first compound 0.08 µM): 0.763
relative viability (NCI-H661; first compound 0.8 µM): 0.784
relative viability (NCI-H661; first compound 2.53 µM): 0.8
relative viability (NCI-H661; first compound 8 µM): 0.769
relative viability (NCI-H1651; first compound 0.08 µM): 0.749
relative viability (NCI-H1651; first compound 0.8 µM): 0.677
relative viability (NCI-H1651; first compound 2.53 µM): 0.801
relative viability (NCI-H1651; first compound 8 µM): 0.776
relative viability (NCI-H2087; first compound 0.08 µM): 0.5
relative viability (NCI-H2087; first compound 0.8 µM): 0.543
relative viability (NCI-H2087; first compound 2.53 µM): 0.656
relative viability (NCI-H2087; first compound 8 µM): 0.628
relative viability (NCI-H1437; first compound 0.08 µM): 0.859
relative viability (NCI-H1437; first compound 0.8 µM): 1.01
relative viability (NCI-H1437; first compound 2.53 µM): 0.934
relative viability (NCI-H1437; first compound 8 µM): 0.822
relative viability (NCI-H1650; first compound 0.08 µM): 0.791
relative viability (NCI-H1650; first compound 0.8 µM): 0.801
relative viability (NCI-H1650; first compound 2.53 µM): 0.653
relative viability (NCI-H1650; first compound 8 µM): 0.598
relative viability (ABC-1; first compound 0.08 µM): 0.58
relative viability (ABC-1; first compound 0.8 µM): 0.646
relative viability (ABC-1; first compound 2.53 µM): 0.472
relative viability (ABC-1; first compound 8 µM): 0.552
relative viability (UMC-11; first compound 0.08 µM): 0.441
relative viability (UMC-11; first compound 0.8 µM): 0.492
relative viability (UMC-11; first compound 2.53 µM): 0.511
relative viability (UMC-11; first compound 8 µM): 0.51
relative viability (LCLC-103H; first compound 0.08 µM): 0.467
relative viability (LCLC-103H; first compound 0.8 µM): 0.492
relative viability (LCLC-103H; first compound 2.53 µM): 0.495
relative viability (LCLC-103H; first compound 8 µM): 0.423
relative viability (HCC-44; first compound 0.08 µM): 0.481
relative viability (HCC-44; first compound 0.8 µM): 0.479
relative viability (HCC-44; first compound 2.53 µM): 0.344
relative viability (HCC-44; first compound 8 µM): 0.323
relative viability (NCI-H520; first compound 0.08 µM): 0.227
relative viability (NCI-H520; first compound 0.8 µM): 0.319
relative viability (NCI-H520; first compound 2.53 µM): 0.401
relative viability (NCI-H520; first compound 8 µM): 0.238
relative viability (H3255; first compound 0.08 µM): 0.586
relative viability (H3255; first compound 0.8 µM): 0.628
relative viability (H3255; first compound 2.53 µM): 0.63
relative viability (H3255; first compound 8 µM): 0.587
relative viability (201T; first compound 0.08 µM): 0.72
relative viability (201T; first compound 0.8 µM): 0.883
relative viability (201T; first compound 2.53 µM): 0.746
relative viability (201T; first compound 8 µM): 0.83
relative viability (NCI-H358; first compound 0.08 µM): 0.774
relative viability (NCI-H358; first compound 0.8 µM): 1.01
relative viability (NCI-H358; first compound 2.53 µM): 0.898
relative viability (NCI-H358; first compound 8 µM): 1.07
relative viability (HCC-15; first compound 0.08 µM): 0.666
relative viability (HCC-15; first compound 0.8 µM): 0.758
relative viability (HCC-15; first compound 2.53 µM): 0.721
relative viability (HCC-15; first compound 8 µM): 0.625
relative viability (NCI-H1975; first compound 0.08 µM): 0.728
relative viability (NCI-H1975; first compound 0.8 µM): 0.817
relative viability (NCI-H1975; first compound 2.53 µM): 0.88
relative viability (NCI-H1975; first compound 8 µM): 0.768
relative viability (COR-L 105; first compound 0.08 µM): 0.693
relative viability (COR-L 105; first compound 0.8 µM): 0.836
relative viability (COR-L 105; first compound 2.53 µM): 0.602
relative viability (COR-L 105; first compound 8 µM): 0.621
relative viability (HCC-827; first compound 0.08 µM): 0.749
relative viability (HCC-827; first compound 0.8 µM): 0.797
relative viability (HCC-827; first compound 2.53 µM): 0.836
relative viability (HCC-827; first compound 8 µM): 0.866

Source: the supplement of paper PMC10307832
